pEC50: −log10 of the molar value.
Molecular target: T1, N-formyl peptide receptor 2 (Homo sapiens, UniProt P25090)
T1 sequence (P25090 whole entry): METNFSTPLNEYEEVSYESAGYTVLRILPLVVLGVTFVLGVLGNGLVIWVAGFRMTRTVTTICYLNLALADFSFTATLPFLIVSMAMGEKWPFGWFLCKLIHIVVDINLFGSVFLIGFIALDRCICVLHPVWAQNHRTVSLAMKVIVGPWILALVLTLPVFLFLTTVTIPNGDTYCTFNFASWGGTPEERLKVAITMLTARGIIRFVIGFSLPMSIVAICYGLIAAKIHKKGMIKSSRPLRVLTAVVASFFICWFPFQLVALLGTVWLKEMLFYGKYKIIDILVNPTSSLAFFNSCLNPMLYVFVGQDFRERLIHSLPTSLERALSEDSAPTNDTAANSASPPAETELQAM
Assay: FPR2 and FPR1 Cyclic Adenosine Monophosphate (cAMP) Assays: A mixture of forskolin (5 μM final for FPR2 or 10 μM final for FPR1) and IBMX (200 μM final) were added to 384-well Proxiplates (Perkin-Elmer) pre-dotted with test compounds in DMSO (1% final) at final concentrations in the range of 1.7 nM to 100 μM. Chinese Hamster Ovary cells (CHO) overexpressing human FPR1 or human FPR2 receptors were cultured in F-12 (Ham's) medium supplemented with 10% qualified FBS, 250 μg/ml zeocin and 300 μg/ml hygromycin (Life Technologies). Reactions were initiated by adding 2,000 human FPR2 cells per well or 4,000 human FPR1 cells per well in Dulbecco's PBS (with calcium and magnesium) (Life Technologies) supplemented with 0.1% BSA (Perkin-Elmer). The reaction mixtures were incubated for 30 min at room temperature. The level of intracellular cAMP was determined using the HTRF HiRange cAMP assay reagent kit (Cisbio) according to manufacturer's instruction. Solutions of cryptate conjugated anti-cAMP and d2 flurorophore-labelled cAMP were made in a supplied lysis buffer separately. Upon completion of the reaction, the cells were lysed with equal volume of the d2-cAMP solution and anti-cAMP solution. After a 1-h room temperature incubation, time-resolved fluorescence intensity was measured using the Envision (Perkin-Elmer) at 400 nm excitation and dual emission at 590 nm and 665 nm. […]
Assay type: cell-based

Row | pEC50 | Compound
1 | > 8.00 | O=C(Nc1cnc(Cl)cn1)N[C@@H]1CCCN(c2ccc(C3(CN4CCOCC4)CC3)cc2)C1=O
2 | > 8.00 | O=C(Nc1ccc(C(F)(F)F)cc1)N[C@@H]1CCCN(c2ccc(C3CCOCC3)cc2)C1=O

Source: ChEMBL document CHEMBL5728714, “Aryl heterocyclic piperidinone formyl peptide 2 receptor and formyl peptide 1 receptor agonists” (2021)
